# From US12484574B2, “Agent for promoting undifferentiation and cryoprotective agent using aprotic zwitterion” (JAPAN SCIENCE AND TECHNOLOGY AGENCY, priority 2019, dated 2025)
# Tested on: Mouse fibroblasts C57BL/6-GFP
# Assay: Cell freezing, slow freezing method, viable cell count after thawing (Example 2)
# Format: cell-based
# Conditions: 5% by weight in H2O; frozen to −80° C. at −1° C./min; FIG. 4
# Protocol: CultureSure® cryopreservation solution (manufactured by FUJIFILM Wako Pure Chemical Corp.) (hereinafter, referred to as “FM”) • H2O • 5% by weight of DMSO/H2O • 5% by weight of OE2imC3C/H2O
# The cells to be frozen (two types) were centrifugally recovered by trypsin treatment and diluted with Dulbecco's modified Eagle medium (DMEM), and each cell concentration was measured. The types and cell concentrations of the cells are as follows. • Human skin fibroblasts 5.0×10^5 cells/100 μl • Mouse fibroblasts C57BL/6-GFP 5.0×10^5 cells/100 μl
# Subsequently, the cells of each type were dispensed at 1 ml/tube to 1.5 ml tubes, centrifuged, suspended in 100 μl each of the cryopreservation solutions described above, and frozen at a cooling temperature of −80° C. at a cooling rate of −1° C./min using a cell freezing container Mr. Frosty®.
# 1 ml of a medium was added to the cryopreservation vial for thawing, and a supernatant was removed by centrifugation. Subsequently, the cells obtained by centrifugation were resuspended in a medium, followed by the measurement of a viable cell count. Then, culture was started in a 6-well plate.
smiles,measurement,value
COCCOCCn1cc[n+](CCCC(=O)[O-])c1 [OE2imC3C],viable cell count after thawing,larger viable cell count than that in the case of using conventional DMSO
